In patent US6875774B2, “Aza-bridged bicyclic amine derivatives for use as novel cholinergic receptor ligands” (The University of North Carolina, priority 2002, dated 2005):
Structures can show the parent of a compound that is named as a salt. Where two headings read alike, the source gives them in different places.

How the values were obtained:
human M1 receptor [1] = molecular target: T1, human M1 receptor (Homo sapiens, UniProt P11229); test: biochemical; assay type: binding
T1 construct: made in house; host or cells: Sf9 insect cells (baculovirus)
T1 sequence (P11229 1-460): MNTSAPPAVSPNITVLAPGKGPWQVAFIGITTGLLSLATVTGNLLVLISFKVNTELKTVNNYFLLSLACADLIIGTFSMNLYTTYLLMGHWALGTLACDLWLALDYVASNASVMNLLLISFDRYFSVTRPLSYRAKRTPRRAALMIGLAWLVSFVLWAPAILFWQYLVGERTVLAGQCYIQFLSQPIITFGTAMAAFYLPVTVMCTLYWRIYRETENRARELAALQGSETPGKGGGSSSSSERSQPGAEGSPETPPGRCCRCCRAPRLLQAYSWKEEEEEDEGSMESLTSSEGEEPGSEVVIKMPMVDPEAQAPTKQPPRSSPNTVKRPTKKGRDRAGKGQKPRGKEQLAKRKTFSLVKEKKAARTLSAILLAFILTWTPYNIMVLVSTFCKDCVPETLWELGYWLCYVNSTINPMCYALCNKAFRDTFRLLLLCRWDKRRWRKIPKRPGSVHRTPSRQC

human M2 receptor = molecular target: T2, human M2 receptor (Homo sapiens, UniProt P08172); test: Muscarinic M2 competition binding assay ([3H]QNB, Sf9 membranes)
T2 construct: made in house; host or cells: Sf9 insect cells (baculovirus)
T2 sequence (P08172 1-466): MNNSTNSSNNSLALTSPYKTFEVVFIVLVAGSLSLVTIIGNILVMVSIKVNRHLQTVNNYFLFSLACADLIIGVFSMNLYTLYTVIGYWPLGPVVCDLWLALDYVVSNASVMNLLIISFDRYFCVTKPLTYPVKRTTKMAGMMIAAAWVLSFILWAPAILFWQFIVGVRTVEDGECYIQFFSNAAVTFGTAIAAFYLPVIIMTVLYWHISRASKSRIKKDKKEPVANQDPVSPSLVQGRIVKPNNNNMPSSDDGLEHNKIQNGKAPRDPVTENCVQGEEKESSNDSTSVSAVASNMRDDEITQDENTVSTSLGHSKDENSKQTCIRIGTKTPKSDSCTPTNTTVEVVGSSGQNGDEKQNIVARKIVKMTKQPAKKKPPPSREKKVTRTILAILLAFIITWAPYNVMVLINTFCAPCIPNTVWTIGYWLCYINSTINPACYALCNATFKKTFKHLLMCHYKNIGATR

human M1 receptor [2] = molecular target: T1, human M1 receptor; test: Functional assay of M1 muscarinic receptors ([3H]inositol phosphate accumulation in Sf9 cells); assay type: cell-based; conditions: 100 μM carbachol with increasing amounts of compound (FIG. 3)
Procedure: A functional assay of M1 muscarinic receptors was performed. M1 receptor activity was determined by measuring activation of the Gαq effector, phospholipase C-β. Recombinant human M1 receptor was expressed (48 h) from a baculovirus in Sf9 insect cells. The inositol lipid pool of cells was radiolabeled by incubating the cells overnight in inositol-free Grace's medium containing 1 μCi of myo-[^3H]inositol. The medium was supplemented with 50 mM HEPES, pH 7.4, and 10 mM LiCl (final concentration) and placed in a 27° C. bath for 10 min prior to assay. The assay was initiated by addition of the appropriate ligand(s) and incubations continued for 20 min. The assay was terminated by aspirating the medium and adding 750 μL of ice-cold 50 mM formic acid. After 30 min at 4° C., the samples were neutralized with 250 μL of 150 mM NH4OH. [^3H]Inositol phosphates were isolated by ion exchange chromatography on Dowex AG 1-X8 columns and quantitated by liquid scintillation counting. […] The data shown in FIG. 3 are the results of an experiment performed in triplicate.

Row | SMILES | Ki (human M1 receptor [1]; read-out: hM1 receptor Ki) | Ki (human M2 receptor; read-out: hM2 receptor Ki) | Ki fold greater than atropine at the human M2 receptor (human M2 receptor; relative to atropine) | functional activity at muscarinic receptor (human M1 receptor [2]) | Ki (human M1 receptor [1]; hM1 receptor Ki) | Ki (human M2 receptor; hM2 receptor Ki)
1 | CCOC(=O)C1=C(O)[C@H]2CC[C@H](COCc3ccccc3)N(C1)C2 (relative stereo) [Compound 5, exo-8-Benzyloxymethyl-3-ethoxycarbonyl-4-hydroxy-1-azabicyclo[3.3.1]non-3-ene] | 0.203 ± 0.083 µM | 0.0843 ± 0.0081 µM | 14 fold | muscarinic receptor antagonist |  | 
2 | CCOC(=O)C1=C(O)[C@H]2CC[C@@H](COCc3ccccc3)N(C1)C2 (relative stereo) [Compound 6, endo-8-Benzyloxymethyl-3-ethoxycarbonyl-4-hydroxy-1-azabicyclo[3.3.1]non-3-ene] | 10.3 ± 2.38 µM | 7.35 ± 1.09 µM |  |  |  | 
3 | CCOC(=O)C1=C(O)C2CCCN(C1)C2 (stereo not drawn) [Compound 4, 3-Ethoxycarbonyl-4-hydroxy-1-azabicyclo[3.3.1]non-3-ene] |  |  |  |  | 1.01 ± 0.068 µM | 2.85 ± 0.179 µM
4 | CCOC(=O)C1=C(O)C2CCC(CN(C)C)N(C1)C2 (stereo not drawn) [Compound 7, exo-8-Dimethylaminomethyl-3-ethoxycarbonyl-4-hydroxy-1-azabicyclo[3.3.1]non-3-ene] | 16.8 ± 15.2 µM | 23.9 ± 13.7 µM |  |  |  | 
5 | CCOC(=O)C1=C(O)C2CCC(CN(C)C)N(C1)C2 (stereo not drawn) [Compound 8, endo-8-Dimethylaminomethyl-3-ethoxycarbonyl-4-hydroxy-1-azabicyclo[3.3.1]non-3-ene] | 12.4 ± 3.74 µM | 47.6 ± 14.8 µM |  |  |  | 
6 | O=C1CCN2CCCC1C2 (stereo not drawn) [Compound 9, 1-Azabicyclo[3.3.1]nonan-4-one] |  |  |  |  | > 100 µM | > 100 µM
7 | CN(C)CC1CCC2CN1CCC2=O (stereo not drawn) [Compound 12, exo-8-Dimethylaminomethyl-1-azabicyclo[3.3.1]nonan-4-one-HCl] |  |  |  |  | > 100 µM | > 100 µM
8 | CN(C)CC1CCC2CN1CCC2=O (stereo not drawn) [Compound 13, endo-8-Dimethylaminomethyl-1-azabicyclo[3.3.1]nonan-4-one-HCl] | > 100 µM | > 100 µM |  |  |  | 
